PubChem BioAssay (NCI)
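How tested: cells in 96-well plates exposed to compound for 48 hours at five concentrations. GI50 marks 50% less growth. TGI is the concentration that stops growth completely.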

Legend:
Assay in all cases: DTP human tumour cell line panel, 48 h
HOP-62 NSCLC = test system: HOP-62 NSCLC
CAKI-1 renal = test system: CAKI-1 renal
SK-MEL-5 melanoma = test system: SK-MEL-5 melanoma
NCI/ADR-RES ovarian = test system: NCI/ADR-RES ovarian
SF-539 CNS = test system: SF-539 CNS
HOP-92 NSCLC = test system: HOP-92 NSCLC
786-0 renal = test system: 786-0 renal
EKVX NSCLC = test system: EKVX NSCLC
NCI-H226 lung = test system: NCI-H226 lung
KM12 colon = test system: KM12 colon
NCI-H460 lung = test system: NCI-H460 lung
A498 renal = test system: A498 renal
SW-620 colon = test system: SW-620 colon
TK-10 renal = test system: TK-10 renal
LOX IMVI melanoma = test system: LOX IMVI melanoma
A549 NSCLC = test system: A549 NSCLC
NCI-H23 lung = test system: NCI-H23 lung
SF-295 CNS = test system: SF-295 CNS
IGROV1 ovarian = test system: IGROV1 ovarian
SF-268 CNS = test system: SF-268 CNS
DU-145 prostate = test system: DU-145 prostate
HCT-15 colon = test system: HCT-15 colon
HL-60(TB) leukemia = test system: HL-60(TB) leukemia
HT29 colon = test system: HT29 colon
M14 melanoma = test system: M14 melanoma
RXF 393 renal = test system: RXF 393 renal
K-562 leukemia = test system: K-562 leukemia
ACHN renal = test system: ACHN renal
SN12C renal = test system: SN12C renal
MCF7 breast = test system: MCF7 breast
CCRF-CEM leukemia = test system: CCRF-CEM leukemia
SR leukemia = test system: SR leukemia
MALME-3M melanoma = test system: MALME-3M melanoma
SNB-19 CNS = test system: SNB-19 CNS
SK-MEL-2 melanoma = test system: SK-MEL-2 melanoma
T-47D breast = test system: T-47D breast
PC-3 prostate = test system: PC-3 prostate
OVCAR-4 ovarian = test system: OVCAR-4 ovarian
UACC-62 melanoma = test system: UACC-62 melanoma
HCC-2998 colon = test system: HCC-2998 colon
MDA-MB-435 = test system: MDA-MB-435
UO-31 renal = test system: UO-31 renal
HCT-116 colon = test system: HCT-116 colon
OVCAR-5 ovarian = test system: OVCAR-5 ovarian
U251 CNS = test system: U251 CNS
OVCAR-3 ovarian = test system: OVCAR-3 ovarian
SK-MEL-28 melanoma = test system: SK-MEL-28 melanoma
MDA-MB-468 breast = test system: MDA-MB-468 breast
UACC-257 melanoma = test system: UACC-257 melanoma
SK-OV-3 ovarian = test system: SK-OV-3 ovarian
SNB-75 CNS = test system: SNB-75 CNS
NCI-H522 lung = test system: NCI-H522 lung
MOLT-4 leukemia = test system: MOLT-4 leukemia
MDA-MB-231 breast = test system: MDA-MB-231 breast
COLO 205 colon = test system: COLO 205 colon
RPMI-8226 leukemia = test system: RPMI-8226 leukemia
HS 578T breast = test system: HS 578T breast
BT-549 breast = test system: BT-549 breast
OVCAR-8 ovarian = test system: OVCAR-8 ovarian

## CCC(C)S(=O)(=O)c1oc(-c2ccc(C)cc2)nc1S(=O)(=O)c1ccccc1 (stereo not drawn)
HOP-62 NSCLC
  GI50: 15.8 µM
  TGI: 33.2 µM
CAKI-1 renal
  GI50: 1.53 µM
  TGI: 3.15 µM
SK-MEL-5 melanoma
  GI50: 2.99 µM
  TGI: 11.6 µM
NCI/ADR-RES ovarian
  GI50: 2.35 µM
  TGI: 5.7 µM
SF-539 CNS
  GI50: 1.67 µM
  TGI: 3.03 µM
HOP-92 NSCLC
  GI50: 2.27 µM
  TGI: 6.37 µM
786-0 renal
  GI50: 1.67 µM
  TGI: 3.37 µM
EKVX NSCLC
  GI50: 1.98 µM
  TGI: 4.21 µM
NCI-H226 lung
  GI50: 12.5 µM
  TGI: 30.5 µM
KM12 colon
  GI50: 8.37 µM
  TGI: 23.4 µM
NCI-H460 lung
  GI50: 3.13 µM
  TGI: 12.1 µM
A498 renal
  GI50: 16.9 µM
  TGI: 30.7 µM
SW-620 colon
  GI50: 1.13 µM
  TGI: 2.47 µM
TK-10 renal
  GI50: 1.73 µM
  TGI: 3.44 µM
LOX IMVI melanoma
  GI50: 1.23 µM
  TGI: 2.58 µM
A549 NSCLC
  GI50: 13.5 µM
  TGI: 32.3 µM
NCI-H23 lung
  GI50: 1.76 µM
  TGI: 3.55 µM
SF-295 CNS
  GI50: 11.3 µM
  TGI: 23.4 µM
IGROV1 ovarian
  GI50: 1.96 µM
  TGI: 3.75 µM
SF-268 CNS
  GI50: 2.65 µM
  TGI: 8.81 µM
DU-145 prostate
  GI50: 1.98 µM
  TGI: 4.57 µM
HCT-15 colon
  GI50: 1.45 µM
  TGI: 3.18 µM
HL-60(TB) leukemia
  GI50: 1.6 µM
  TGI: 4.91 µM
HT29 colon
  GI50: 2.04 µM
  TGI: 4.86 µM
M14 melanoma
  GI50: 1.73 µM
  TGI: 3.83 µM
RXF 393 renal
  GI50: 1.48 µM
  TGI: 3.1 µM
K-562 leukemia
  GI50: 1.38 µM
  TGI: > 100 µM
ACHN renal
  GI50: 1.65 µM
  TGI: 3.01 µM
SN12C renal
  GI50: 1.72 µM
  TGI: 3.34 µM
MCF7 breast
  GI50: 1.2 µM
  TGI: 2.86 µM
CCRF-CEM leukemia
  GI50: 0.287 µM
  TGI: 1.33 µM
SR leukemia
  GI50: 2.73 µM
  TGI: > 100 µM
MALME-3M melanoma
  GI50: 1.65 µM
  TGI: 3.03 µM
SNB-19 CNS
  GI50: 12.9 µM
  TGI: 25.5 µM
SK-MEL-2 melanoma
  GI50: 4.1 µM
  TGI: 16.2 µM
T-47D breast
  GI50: 1.87 µM
  TGI: 4.41 µM
PC-3 prostate
  GI50: 3.14 µM
  TGI: 11.2 µM
OVCAR-4 ovarian
  GI50: 2.67 µM
  TGI: 7.84 µM
UACC-62 melanoma
  GI50: 1.76 µM
  TGI: 3.75 µM
HCC-2998 colon
  GI50: 1.74 µM
  TGI: 3.3 µM
MDA-MB-435
  GI50: 1.74 µM
  TGI: 3.85 µM
UO-31 renal
  GI50: 1.52 µM
  TGI: 2.85 µM
HCT-116 colon
  GI50: 1.52 µM
  TGI: 3.62 µM
OVCAR-5 ovarian
  GI50: 2.83 µM
  TGI: 9.59 µM
U251 CNS
  GI50: 15.5 µM
  TGI: 31.2 µM
OVCAR-3 ovarian
  GI50: 1.63 µM
  TGI: 3.23 µM
SK-MEL-28 melanoma
  GI50: 1.71 µM
  TGI: 3.14 µM
MDA-MB-468 breast
  GI50: 1.43 µM
  TGI: 2.99 µM
UACC-257 melanoma
  GI50: 1.89 µM
  TGI: 4.24 µM
SK-OV-3 ovarian
  GI50: 17.2 µM
  TGI: 33.3 µM
SNB-75 CNS
  GI50: 3.86 µM
  TGI: 17 µM
NCI-H522 lung
  GI50: 1.31 µM
  TGI: 2.77 µM
MOLT-4 leukemia
  GI50: 1.45 µM
  TGI: > 100 µM
MDA-MB-231 breast
  GI50: 1.66 µM
  TGI: 3.15 µM
COLO 205 colon
  GI50: 2.67 µM
  TGI: 6.02 µM
RPMI-8226 leukemia
  GI50: 2.16 µM
  TGI: 8.17 µM
HS 578T breast
  GI50: 2.18 µM
  TGI: 7.36 µM
BT-549 breast
  GI50: 1.81 µM
  TGI: 3.42 µM
OVCAR-8 ovarian
  GI50: 3.09 µM
  TGI: 10.7 µM
